Assay results published in PMC7284870, “Antimicrobial Peptides from Rat-Tailed Maggots of the Drone Fly Eristalis tenax Show Potent Activity against Multidrug-Resistant Gram-Negative Bacteria” (Microorganisms, 2020).
Like-named read-outs stand apart in the source and are kept apart here. No end group written: not given here.

Assays:
[1] = test system: Klebsiella oxytoca RKI 52/07; assay type: cell-based
Method: (§1) The strains that were used in this study (Table 2 and Table S1) were cultivated at 37 °C in cation-adjusted Mueller–Hinton broth (CAMB) in Erlenmeyer flasks, or on the same medium with agar in Petri dishes. Exceptionally, Mycobacterium smegmatis was cultivated at 37 °C in brain heart infusion (BHI) medium that was supplemented with 1% Tween-80 in Erlenmeyer flasks, or on the same medium lacking detergent but with agar in Petri dishes. Strains listed with Robert Koch Institute (RKI) strain numbers are clinical isolates from the RKI strain collection originating from hospitalized patients in Germany. The remaining strains originated from the Sanofi strain collection and they were originally purchased from the American Type Culture Collection or the German Collection of Microorganisms and Cell Cultures. Meropenem/colistin-resistant strains were maintained, as described above, with the appropriate antibiotic added at levels below the minimal inhibitory concentration (MIC).
(§2) The MIC values were determined in 384-well microtiter plates with an assay volume of 20 µL. Immediately before each assay, the cultures of test organisms (bacteria grown for 18 h, Candida albicans and M. smegmatis grown for 48 h) were diluted with the appropriate medium to a density of 1 × 10^6 cells/mL (C. albicans), 1 × 10^5 cells/mL (M. smegmatis) or 5 × 10^5 cells per mL (other species). […] We transferred 2-µL aliquots from this dilution series to new 384-well microtiter plates while using a CyBio-Well 384-channel automated pipettor (Analytic Jena, Jena, Germany) and added 18 µL of the diluted suspension of each test species using a Viafill reagent dispenser (Integra), thus reducing the final peptide concentration 10-fold to the range 1024–0.03125 µg/mL. […] The growth of M. smegmatis was measured using the BacTiter-Glo luminescence test system (Promega, Madison, WI, USA). The growth of the other species was determined by visual inspection of the microtiter plate and turbidimetry based on the optical density at 600 nm (OD600). The MIC was defined as the peptide concentration at which no bacterial growth was observed. We supplemented the test medium with either 150 mM NaCl or 1.25 mM CaCl2 to represent monovalent and divalent cations to simulate physiological conditions.

[2] = test system: Pseudomonas aeruginosa ATCC 27853; assay type: cell-based
Method: as §1, §2

[3] = test system: Enterococcus faecium DSM 17050; assay type: cell-based
Method: as §1, §2

[4] = test system: Staphylococcus epidermidis ATCC 35984; assay type: cell-based
Method: as §1, §2

Escherichia coli D31 = assay type: cell-based
Method: as §1, §2

[5] = test system: Staphylococcus aureus ATCC 25923; assay type: cell-based
Method: as §1, §2

[6] = test system: Listeria monocytogenes DSM 20600; assay type: cell-based
Method: as §1, §2

[7] = test system: Mycobacterium smegmatis ATCC 607; assay type: cell-based
Method: as §1, §2

[8] = test system: Proteus mirabilis DSM 4479; assay type: cell-based
Method: as §1, §2

A. baumannii RKI 19/09 = assay: microbe, parasite or virus in culture; assay type: cell-based, Acinetobacter baumannii
Method: as §1, §2

E. coli RKI 6A-6 = assay: microbe, parasite or virus in culture; assay type: cell-based, Escherichia coli
Method: as §1, §2

K. pneumoniae RKI 268/15 = assay type: cell-based, Klebsiella pneumoniae
Method: as §1, §2

K. pneumoniae RKI 68/16 = assay type: cell-based, Klebsiella pneumoniae
Method: as §1, §2

Canida albicans FH2173 = assay type: cell-based, Candida albicans; conditions: 24 h
Method: as §1, §2

S. aureus ATCC 33592 = assay type: cell-based, Staphylococcus aureus
Method: as §1, §2

E. coli ATCC 25922 = test system: E. coli ATCC 25922
Method: as §1
The MIC values were determined in 384-well microtiter plates with an assay volume of 20 µL. Immediately before each assay, the cultures of test organisms (bacteria grown for 18 h, Candida albicans and M. smegmatis grown for 48 h) were diluted with the appropriate medium to a density of 1 × 10^6 cells/mL (C. albicans), 1 × 10^5 cells/mL (M. smegmatis) or 5 × 10^5 cells per mL (other species). The peptides were dissolved in sterile water at a concentration of 10.24 mg/mL and a 1:2 dilution series was prepared in a 384-well microtiter plate to achieve the concentration range 10,240–0.3125 µg/mL in a volume of 50 µL. We transferred 2-µL aliquots from this dilution series to new 384-well microtiter plates while using a CyBio-Well 384-channel automated pipettor (Analytic Jena, Jena, Germany) and added 18 µL of the diluted suspension of each test species using a Viafill reagent dispenser (Integra), thus reducing the final peptide concentration 10-fold to the range 1024–0.03125 µg/mL. The cells were incubated at 37 °C and 85% relative humidity, shaking at 180 rpm for 48 h (M. smegmatis), 24 h (C. albicans) or 18 h (other species). The growth of M. smegmatis was measured using the BacTiter-Glo luminescence test system (Promega, Madison, WI, USA). The growth of the other species was determined by visual inspection of the microtiter plate and turbidimetry based on the optical density at 600 nm (OD600). […] We supplemented the test medium with either 150 mM NaCl or 1.25 mM CaCl2 to represent monovalent and divalent cations to simulate physiological conditions.

[9] = test system: Enterobacter cloacae RKI 146/09; assay: microbe, parasite or virus in culture; assay type: cell-based
Method: as §1, §2

[10] = test system: Klebsiella pneumoniae DSM 30104; assay type: cell-based
Method: as §1, §2

[11] = test system: Acinetobacter baumannii ATCC 19606; assay type: cell-based
Method: as §1, §2

E. coli RKI 131/08 = assay: microbe, parasite or virus in culture; assay type: cell-based, Escherichia coli
Method: as §1, §2

K. pneumoniae RKI 93/10 = assay: microbe, parasite or virus in culture; assay type: cell-based, Klebsiella pneumoniae
Method: as §1, §2

[12] = test system: Stenotrophomonas maltophilia RKI 136/09; assay type: cell-based; conditions: n=3
Method: as §1, §2

[13] = CAMB + 0.075 µg/mL colistin (Col), n=3
[14] = CAMB adjusted to 1.25 mM CaCl2, n=3
[15] = CAMB adjusted to 150 mM NaCl, n=3

“GFLKKIGKKLEGAVQRTRDATIQTIAVAQAAANVAATAKQG [EtCec1]” was tested, and the MIC ([1]; 18 h) was 16 µg/mL, the MIC ([2]; ATCC 27853, 18 h) was 256 µg/mL and the MIC ([3]; DSM 17050, 18 h) was >1024 µg/mL. The MIC ([4]; ATCC 35984, 18 h) was >1024 µg/mL, the MIC (Escherichia coli D31; D31, 18 h) was 16 µg/mL and the MIC ([5]; ATCC 25923, 18 h) was >1024 µg/mL. For the same substance, the MIC ([6]; DSM 20600, 18 h) was >1024 µg/mL, the MIC ([7]; ATCC 607, 48 h) was >1024 µg/mL and the MIC ([8]; DSM 4479, 18 h) was >1024 µg/mL. The MIC (A. baumannii RKI 19/09; RKI 19/09, 18 h) was 16 µg/mL, the MIC (E. coli RKI 6A-6; RKI 6A-6, 18 h) was 32 µg/mL and the MIC (K. pneumoniae RKI 268/15; RKI 268/15, 18 h) was 64 µg/mL. The MIC (K. pneumoniae RKI 68/16; RKI 68/16, 18 h) was 64 µg/mL, the MIC (Canida albicans FH2173) was >1024 µg/mL and the MIC (S. aureus ATCC 33592; ATCC 33592, 18 h) was >1024 µg/mL. For the same substance, the MIC (E. coli ATCC 25922; ATCC 25922, 18 h) was 16 µg/mL.
In the case of “GFLKKVGKKLEGASDLTRDATIQTIAVAQAAANVAATAKQG [EtCec3]”, the MIC ([9]; RKI 146/09, 18 h) was >1024 µg/mL, the MIC ([1]; 18 h) was >1024 µg/mL and the MIC ([2]; ATCC 27853, 18 h) was >1024 µg/mL. The MIC ([3]; DSM 17050, 18 h) was >1024 µg/mL, the MIC ([4]; ATCC 35984, 18 h) was >1024 µg/mL and the MIC ([10]; DSM 30104, 18 h) was >1024 µg/mL. The MIC ([11]; ATCC 19606, 18 h) was >1024 µg/mL, the MIC ([5]; ATCC 25923, 18 h) was >1024 µg/mL and the MIC ([6]; DSM 20600, 18 h) was >1024 µg/mL. For the same substance, the MIC ([7]; ATCC 607, 48 h) was >1024 µg/mL, the MIC ([8]; DSM 4479, 18 h) was >1024 µg/mL and the MIC (A. baumannii RKI 19/09; RKI 19/09, 18 h) was >1024 µg/mL. For the same substance, the MIC (E. coli RKI 131/08; RKI 131/08, 18 h) was >1024 µg/mL, the MIC (Canida albicans FH2173) was >1024 µg/mL and the MIC (K. pneumoniae RKI 93/10; RKI 93/10, 18 h) was >1024 µg/mL. The MIC (S. aureus ATCC 33592; ATCC 33592, 18 h) was >1024 µg/mL and the MIC (E. coli ATCC 25922; ATCC 25922, 18 h) was >1024 µg/mL.
Work on “GWLRDFGKRIERTGQNIRDATIQTIGIAQEAANVAATLKG [EtCec2]” yielded an MIC [9, 13] of 64 µg/mL, an MIC [9, 14] of 128 µg/mL and an MIC [9, 15] of 128 µg/mL. It also gave an MIC ([9]; Table 4, CAMB, n=3) of 64 µg/mL, an MIC [1, 13] of 2 µg/mL and an MIC ([1]; Table 5, CAMB, n=3) of 32 µg/mL. For the same substance, the MIC ([2]; CAMB, 18 h, 37 °C, n = 4) was >1024 µg/mL, the MIC ([3]; CAMB, 18 h, 37 °C, n = 4) was >1024 µg/mL and the MIC ([4]; CAMB, 18 h, 37 °C, n = 4) was >1024 µg/mL. It also gave an MIC [10, 13] of 2 µg/mL, an MIC [10, 14] of 32 µg/mL and an MIC [10, 15] of 16 µg/mL. The MIC ([10]; CAMB, 18 h, 37 °C, n = 4) was 32 µg/mL, the MIC ([10]; Table 4, CAMB, n=3) was 32 µg/mL and the MIC (Escherichia coli D31; CAMB, 18 h, 37 °C, n = 4) was 16 µg/mL. The MIC [11, 13] was 16 µg/mL, the MIC [11, 14] was 64 µg/mL and the MIC [11, 15] was 8 µg/mL. For the same substance, the MIC ([11]; CAMB, 18 h, 37 °C, n = 4) was 32 µg/mL, the MIC ([11]; Table 4, CAMB, n=3) was 32 µg/mL and the MIC ([5]; CAMB, 18 h, 37 °C, n = 4) was >1024 µg/mL. For the same substance, the MIC ([6]; CAMB, 18 h, 37 °C, n = 4) was >1024 µg/mL, the MIC ([7]; BHI, 48 h, 37 °C, BacTiter-Glo, n = 4) was >1024 µg/mL and the MIC ([12]; CAMB adjusted to 150 mM NaCl) was 256 µg/mL. The MIC ([12]; Table 4, CAMB) was 512 µg/mL, the MIC ([8]; CAMB, 18 h, 37 °C, n = 4) was >1024 µg/mL and the MIC (A. baumannii RKI 19/09; [13]) was 4 µg/mL. For the same substance, the MIC (A. baumannii RKI 19/09; [15]) was 16 µg/mL, the MIC (A. baumannii RKI 19/09; Table 4, CAMB, n=3) was 16 µg/mL and the MIC (E. coli RKI 131/08; [13]) was 2 µg/mL. For the same substance, the MIC (E. coli RKI 131/08; [14]) was 64 µg/mL, the MIC (E. coli RKI 131/08; [15]) was 32 µg/mL and the MIC (E. coli RKI 131/08; Table 4, CAMB, n=3) was 32 µg/mL. It also gave an MIC (E. coli RKI 6A-6; Table 4, CAMB, n=3) of 256 µg/mL, an MIC (K. pneumoniae RKI 268/15; Table 4, CAMB, n=3) of 256 µg/mL and an MIC (K. pneumoniae RKI 68/16; Table 4, CAMB, n=3) of 256 µg/mL. The MIC (Canida albicans FH2173; CAMB, 37 °C, n = 4) was >1024 µg/mL, the MIC (K. pneumoniae RKI 93/10; [13]) was 16 µg/mL and the MIC (K. pneumoniae RKI 93/10; [14]) was 256 µg/mL. The MIC (K. pneumoniae RKI 93/10; [15]) was 256 µg/mL, the MIC (K. pneumoniae RKI 93/10; Table 4, CAMB, n=3) was 128 µg/mL and the MIC (S. aureus ATCC 33592; CAMB, 18 h, 37 °C, n = 4) was >1024 µg/mL. For the same substance, the MIC (E. coli ATCC 25922; [13]) was 4 µg/mL, the MIC (E. coli ATCC 25922; [14]) was 128 µg/mL and the MIC (E. coli ATCC 25922; [15]) was 64 µg/mL. For the same substance, the MIC (E. coli ATCC 25922; CAMB, 18 h, 37 °C, n = 4) was 64 µg/mL and the MIC (E. coli ATCC 25922; Table 4, CAMB, n=3) was 64 µg/mL.
Substance colistin [reference compound] has an MIC ([9]; Table 5, CAMB, n=3) of 2 µg/mL, an MIC ([1]; Table 5, CAMB, n=3) of 2 µg/mL and an MIC ([10]; Table 5, CAMB, n=3) of 0.5 µg/mL. It also gave an MIC ([11]; Table 5, CAMB, n=3) of 1 µg/mL, an MIC (A. baumannii RKI 19/09; Table 5, CAMB, n=3) of 0.5 µg/mL and an MIC (E. coli RKI 131/08; Table 5, CAMB, n=3) of 0.5 µg/mL. It also gave an MIC (K. pneumoniae RKI 93/10; Table 5, CAMB, n=3) of 1 µg/mL and an MIC (E. coli ATCC 25922; Table 5, CAMB, n=3) of 0.5 µg/mL.
